# Results: patent publication US12667546B2, “Methods for manipulating cell state transitions in cancer” (AGENCY FOR SCIENCE, TECHNOLOGY AND RESEARCH, priority 2018, dated 2026)
# “Also recorded” adds a separate entry of the source. Read-outs that look alike come from different tables or passages of the source.
# Legend:
# NAMEC8 [1] = assay: Flow cytometry of CD44 and CD24, NAMEC8; format: cell-based, human
# Protocol: Cells were harvested as per FACS and resuspended in 100 μl of solution containing CD24-PE and CD44-APC (BD-Biosciences) antibodies diluted in 2% FBS in PBS (1:40 dilution). Cells were stained for 45 min with vortexing every 10 min to ensure even staining. After antibody incubation, cells were washed once and resuspended in 300 μl 2% FBS in PBS. Cells were then filtered through a 40 μm strainer and analyzed on BD LSR Fortessa X-20 Cell Analyzer.
# NAMEC8-Ras = assay: Tumor formation of pre-treated NAMEC8-Ras injected subcutaneously; format: in vivo, NSG mice; conditions: pre-treated cells, 11 weeks
# NAMEC8 [2] = assay: Cell morphology of treated NAMEC8; format: cell-based, human; conditions: bexarotene, TTNPB, SGC-CBP30, UNC0642, A-485 1 μM, LLY-283, GSK591 20 nM, C-IN-1 500 nM
# Protocol: Human mammary epithelial cell lines (HMLE) were generated as described and immortalized using retroviral vectors to express the catalytic subunit of the human telomerase enzyme, hTERT and the SV-40 Large T antigen. NAMEC8 was generated as described. Briefly, HMLE cells were grown to 50% confluency, followed by differential trypsinization for 1 minute with 0.05% trypsin. Detached cells were carefully collected and re-plated at approximately 200 cells per well of a 24-well plate. Upon expansion, wells were screened for populations that were morphologically mesenchymal and can be stably propagated. Clonal and non-clonal NAMEC cell lines were generated. NAMEC8 is a non-clonal line derived from at least 200 mesenchymal cells. HMLE cells and NAMECs were maintained in MEGM (Lonza).
# NAMEC8 [3] = assay: Expression of EMT and lineage markers (qRT-PCR, immunoblot, immunofluorescence) in NAMEC8; format: cell-based, human; conditions: transcript and protein
# Protocol: Cells were rinsed twice in ice-cold PBS. Total RNA was extracted using Trizol (Invitrogen) and column-purified with RNeasy kits (Qiagen). cDNA synthesis was performed with 500 ng of total RNA at 37° C. for 2 h using the SuperScript III First-Strand Synthesis System (Thermo Fisher Scientific), and subsequently diluted 5-fold. mRNA levels were measured with gene-specific primers listed below using the ABI Prism 7900HT Sequence Detection System 2.2 (Applied Biosystems). Results were normalized to GAPDH and analyzed using SDS 2.2 software.
# Cells were harvested and scraped from culture dishes in ice-cold PBS. They were then centrifuged at 12000 rpm for 5 min at 4° C. The pellets were then snap frozen in liquid nitrogen or lysed in ice-cold RIPA lysis buffer (Thermo Scientific) and left on ice for 30 min. Subsequently, the lysates were centrifuged at 12000 rpm for 10 min at 4° C. The supernatants were then aspirated and placed in fresh tubes. Protein concentrations were determined using Coomaisse Blue. 50-80 μg total protein was mixed with NuPAGE™ LDS sample buffer and heated at 70° C. for 10 min. Samples were loaded into NuPAGE™ 4-12% Bis-Tris gels (precast polyacrylamide gel; Invitrogen™). Gel electrophoresis was done at 200V for 1.5 h and then blotted onto nitrocellulose membranes (Trans-Blot Turbo™ transfer pack; Bio-Rad). The membranes were blocked with 5% skimmed milk in Tris-buffered saline (TBS; 1st BASE) with 0.1% Tween-20 (Santa Cruz), and then incubated with primary antibodies overnight at 4° C. Thereafter, the membranes were incubated with a horseradish peroxidase (HRP)-conjugated secondary antibody at room temperature for one hour. Finally, the immunoreactive proteins were visualized by using an enhanced chemiluminescent (ECL) reagent (Thermo Scientific, 34075) with the Chemidoc™ Imager (Bio-Rad, 17001401).
# Cell cultures were fixed in 4% paraformaldehyde and permeabilized with 0.25% Triton X-100, followed by blocking with 1% bovine serum albumin in PBST. Cells were incubated in specific primary antibodies, followed by the appropriate secondary antibodies conjugated with Alexa Fluor-488 or -594 (Molecular Probes). Cell nuclei were then stained with DAPI and then viewed and imaged with an Axio Observer D1 epifluorescence microscope with a built-in AxioCamMR3 camera (Zeiss), using the optimal filters and 100-200× magnifications.
# metastatic TNBC = conditions: cited from earlier work
compound,measurement,setting,value
CNC(=O)Nc1ccc2c(c1)CC[C@@]21OC(=O)N(CC(=O)N(Cc2ccc(F)cc2)[C@@H](C)C(F)(F)F)C1=O [A-485],CD44/CD24 surface expression,NAMEC8 [1],obvious increase in CD44 expression; also recorded: higher CD44 expression
same,tumor formation / tumor size,NAMEC8-Ras,Tumor formation was still observed
same,cell morphology,NAMEC8 [2],tight clusters of epithelial islands were observed; also recorded: Epithelial-like morphology was observed
same,expression of EMT and basal/luminal markers,NAMEC8 [3],"upregulation of E-cadherin protein expression, with slight decrease in the mesenchymal markers"
Pembrolizumab: immune checkpoint monotherapy in Keynote 012 and Keynote 086 studies,response rate,"metastatic TNBC; Keynote 012, phase 1, monotherapy",18%
same,response rate,"metastatic TNBC; Keynote 086, phase 2, monotherapy",5%
